# Measurements from EP2077260B1, “AMIDE COMPOUND OR SALT THEREOF, AND BIOFILM FORMATION INHIBITOR, BIOFILM REMOVER AND BACTERICIDE EACH USING THE AMIDE COMPOUND OR SALT THEREOF” (The University of Tokyo, priority 2006, dated 2008).
# Where a name gives a salt, the structure may show the parent alone. Read-outs that look alike come from different tables or passages of the source.
# How the values were obtained:
# Assay type in all cases: cell-based
# [1] = test system: Pseudomonas aeruginosa PAO1; experiment: Evaluation test for disinfecting effect, broth dilution method CLSI(M7-A7)2006
# Source text: (§1) The following test compounds were examined for the disinfecting activities against Pseudomonas aeruginosa, E.. Coli and staphylococcus aureus, according to a broth dilution method of "CLSI(M7-A7)2006" (Clinical and Laboratory Standards Institute, M7-A7, Methods for Dilution Antimicrobial Susceptibility Tests for Bacteria That Grow Aerobically; Approved Standard-Seventh Edition, 2006),
# (§2) • Pseudomonas aeruginosa PAO1 • Pseudomonas aeruginosa ATCC 27853 • Escherichia coli ATCC 25922 • Staphylococcus aureus ATCC 29213 • Staphylococcus aureus Methicillin resistant (MRSA) ATCC 43300
# (§3) Each of above-mentioned bacteria was inoculated in a TSB culture medium (Bacto TSB Broth, product of BD) for overnight cultivation at 37°C. The culture solution was applied to a TSB agar plate for about a 20-hour cultivation to form colonies. Three to five colonies were taken from the agar plate, and an average colony of them was inoculated in a 4mL TSB culture medium.. The colony was cultivated at 35°C until the number of microorganisms became 1 × 10^8 to 2 x 10^8 CFU/mL. The number of microorganisms with time was found by measuring changes in absorbency at 590nm of culture solution with time. When the turbidity became equivalent to 0.5 McFarland standard, it was determined that the number of microorganisms reached the target level = 1 × 10^8 to 2 × 10^8 CFU/mL.
# (§4) The bacillus culture solution thus obtained was diluted 10-fold within 15 minutes, and a 5µL portion was inoculated in each well of an evaluation 96-well microplate. This 96-well microplate was a sterilized 96-well microplate with U-shaped bottoms (Falcon 35-3918: product of BD), and each well was filled with a 100µL portion of MH culture medium (BBL MH Broth: product of BD). Within 15 minutes after inoculation of the bacillus culture solutions, the test compounds were supplied to the well in a manner of 2-fold graded dilution. The cultivation was then carried out at 37°C for 18 hours.
# (§5) The MIC was determined as follows. "S (susceptible)" indicates a concentration which caused 80% or more reduction in the diameter of the aggregation deposited in the bottom of the well, compared to when the test liquid is not used. "R (Resistant)" indicates a concentration that caused less than 80% reduction in diameter. The reduction was measured visually.. "I(Intermediate)" indicates a concentration that cannot be measured visually
# [2] = test system: Pseudomonas aeruginosa ATCC 27853; experiment: as above
# Source text: as §1, §2, §3, §4, §5
# [3] = test system: Staphylococcus aureus Methicillin resistant (MRSA) ATCC 43300; experiment: as above
# Source text: as §1, §2, §3, §4, §5
# [4] = test system: Escherichia coli ATCC 25922; experiment: as above
# Source text: as §1, §2, §3, §4, §5
# [5] = test system: Staphylococcus aureus ATCC 29213; experiment: as above
# Source text: as §1, §2, §3, §4, §5
# [6] = test system: Porphyromonas gingivalis 381-strain (clinical strain); experiment: Evaluation test for biofilm formation inhibition effect against periodontitis pathogenic bacteria (flow cell system, HA disks, turbidity); conditions: for Mean OD Value: turbidity at 550 nm of biofilm peeled off HA disks; for inhibition at 100 µM: Porphyromonas gingivalis, 336 h, read-out: Biofilm Formation Inhibition Rate(%)
# Protocol: As with Experiment Example 1, using the flow cell system of FIG. 1, an inhibitory effect against biofilm formation by periodontitis pathogenic bacteria was evaluated for each of the amide compounds produced in Production Examples 1, 3, 5, and 6 (Compounds 1a-1, 1b-1, 1c-1, 1c-2).
# Periodontitis pathogenic bacteria Porphyromonas gingivalis 381-strain (clinical strain) was used..
# A GAM culture medium containing hemin 5µg/L and menadione 1µg/L was used.
# The 381-strain was inoculated in the GAM culture medium, and cultivated until stationary phase (OD550=1.8). Then the culture medium was diluted 20-fold by a fresh GAM culture medium containing the above-mentioned substances.
# The test liquid was prepared by dissolving 100µM of each of the Compounds 1a-1, 1b-1, 1c-1, or 1c-2 according to Production Examples 1, 3, 5 and 6 and 100µM of Comparative Compounds 1 and 2 as comparative examples in dimethyl sulfoxide (DMSO), and supplying the resulting DMSO solutions to the above-mentioned bacterial suspensions so that the concentration of each compound becomes 0.1%(v/v).
# A DMSO not containing the compound was used as a control test liquid.
# The glass cell (4) of the flow cell system (see FIG. 1) was replaced with a stainless cell (3 x 7 x 120mm), and 10 hydroxyapatite (HA) disks (6mm in diameter, 1mm in thickness) were placed in the cell. The HA disks had been subjected to salivary treatment overnight. Each of the test liquids and control test liquids was circulated in the system at a flow rate of 8mL/min for 14 days, Note that the test liquids and the control test liquids were replaced with fresh liquids every two days.
# After the cultivation, the HA disks were dipped in 300µL of sterile distilled water, and treated by supersonic wave for 30 minutes at 4°C, The biofilms formed in the HA disks were peeled off and suspended in distilled water. Then, 100µL of the suspension liquid was measured for the turbidity with an absorptiometer (C07500 colorimeter, product of Funakoshi) (measurement wavelength = 550 nm).
# A mean OD was found based on the resulting OD values, excluding the minimum and maximum values, Also, a mean value of the turbidities for the Control Test Liquids was found in the same manner as the control mean OD value. A biofilm formation inhibition rate (Inhibition Rate) was found by the following formula. Biofilm Formation Inhibition Rate (%) = […] [formula]
# [7] = 100µM, 14 days, relative to control test liquid (Mean Comparison OD Value)
# [8] = PAO1, 18 h, read-out: MIC (µg/mL) I
# [9] = PAO1, 18 h, read-out: MIC (µg/mL) R
# [10] = PAO1, 18 h, read-out: MIC (µg/mL) S
# [11] = ATCC27853, 18 h, read-out: MIC (µg/mL) I
# [12] = ATCC27853, 18 h, read-out: MIC (µg/mL) R
# [13] = ATCC27853, 18 h, read-out: MIC (µg/mL) S
# [14] = ATCC25922, 18 h, read-out: MIC (µg/mL) R
# [15] = ATCC25922, 18 h, read-out: MIC (µg/mL) S
# [16] = ATCC29213, 18 h, read-out: MIC (µg/mL) I
# [17] = ATCC29213, 18 h, read-out: MIC (µg/mL) R
# [18] = ATCC29213, 18 h, read-out: MIC (µg/mL) S
SMILES,"Mean OD Value ([6]; 100µM, 14 days)","MIC [1, 9]","MIC [1, 10]","MIC [2, 12]","MIC [2, 13]","MIC ([3]; 18 h, read-out: MIC (µg/mL) R)","MIC ([3]; 18 h, read-out: MIC (µg/mL) S)","MIC [4, 14]","MIC [4, 15]","MIC [5, 17]","MIC [5, 18]",further results
"CC1(C)S[C@@H]2[C@H](NC(=O)C(C(=O)O)c3ccccc3)C(=O)N2[C@H]1C(=O)O (stereo partly shown) [CBPC, Carbenicillin]",–,–,–,–,–,–,–,–,–,–,–,"MIC ([1]; PAO1, R (Resistant): concentration that caused less than 80% reduction in diameter of the aggregation, 37°C, 18 hours, read-out: MIC (µg/mL) R): ≤ 64 µg/mL; MIC ([1]; PAO1, S (susceptible): concentration which caused 80% or more reduction in diameter of the aggregation, 37°C, 18 hours, read-out: MIC (µg/mL) S): ≥ 128 µg/mL; MIC ([2]; ATCC27853, I (Intermediate): concentration that cannot be measured visually, 37°C, 18 hours, read-out: MIC (µg/mL) I): 128 µg/mL; MIC ([2]; ATCC27853, R (Resistant): concentration that caused less than 80% reduction in diameter of the aggregation, 37°C, 18 hours, read-out: MIC (µg/mL) R): ≤ 64 µg/mL; MIC ([2]; ATCC27853, S (susceptible): concentration which caused 80% or more reduction in diameter of the aggregation, 37°C, 18 hours, read-out: MIC (µg/mL) S): ≥ 256 µg/mL; MIC ([3]; I (Intermediate): concentration that cannot be measured visually, 37°C, 18 hours, read-out: MIC (µg/mL) I): 32 µg/mL; MIC ([3]; R (Resistant): concentration that caused less than 80% reduction in diameter of the aggregation, 37°C, 18 hours, read-out: MIC (µg/mL) R): ≤ 16 µg/mL; MIC ([3]; S (susceptible): concentration which caused 80% or more reduction in diameter of the aggregation, 37°C, 18 hours, read-out: MIC (µg/mL) S): ≥ 64 µg/mL; MIC ([4]; ATCC25922, I (Intermediate): concentration that cannot be measured visually, 37°C, 18 hours, read-out: MIC (µg/mL) I): 16 µg/mL; MIC ([4]; ATCC25922, R (Resistant): concentration that caused less than 80% reduction in diameter of the aggregation, 37°C, 18 hours, read-out: MIC (µg/mL) R): ≤ 8 µg/mL; MIC ([4]; ATCC25922, S (susceptible): concentration which caused 80% or more reduction in diameter of the aggregation, 37°C, 18 hours, read-out: MIC (µg/mL) S): ≥ 32 µg/mL; MIC ([5]; ATCC29213, R (Resistant): concentration that caused less than 80% reduction in diameter of the aggregation, 37°C, 18 hours, read-out: MIC (µg/mL) R): ≤ 8 µg/mL; MIC ([5]; ATCC29213, S (susceptible): concentration which caused 80% or more reduction in diameter of the aggregation, 37°C, 18 hours, read-out: MIC (µg/mL) S): ≥ 16 µg/mL"
"CCCCCCCCCCCC(=O)NC1CCNC1 (stereo not shown) [Compound 1a-1, N-(pyrrolidin-3-yl) dodecanoyl amide]",0.49,–,–,–,–,–,–,–,–,–,–,inhibition at 100 µM [6]: 37.4%
"CCCCCCCCCCCC(=O)NC1CCNCC1 [Compound 1b-1, N-(piperidin-4-yl) dodecanoyl amide]",0.32,–,–,–,–,–,–,–,–,–,–,inhibition at 100 µM [6]: 19.1%
"CCCCCCCCCCCC(=O)NN1CCCC1 [Compound 1c-1, N-(pyrrolidin-1-yl) dodecanoyl amide]",0.522,–,–,–,–,–,–,–,–,–,–,"inhibition at 100 µM [6, 7]: 11%"
"CCCCCCCCCC(O)CC(=O)NN1CCCC1 (stereo not shown) [Compound 1c-2, N-(pyrrolidin-1-yl)-3-hydroxy dodecanoyl amide]",0.041,–,–,–,–,–,–,–,–,–,–,"inhibition at 100 µM [6, 7]: 87.8%"
"CCCCCCCCCCCC(=O)NC1CCNC1 (stereo not shown) [Hydrochloride salt of Compound 1a-1, N-(pyrrolidin-3-yl) dodecanoyl amide]",–,≤ 32 µg/mL,≥ 128 µg/mL,≤ 32 µg/mL,≥ 128 µg/mL,≤ 4 µg/mL,≥ 16 µg/mL,≤ 4 µg/mL,≥ 16 µg/mL,≤ 4 µg/mL,≥ 16 µg/mL,"MIC [1, 8]: 64 µg/mL; MIC [2, 11]: 64 µg/mL; MIC ([3]; 18 h, read-out: MIC (µg/mL) I): 8 µg/mL; MIC ([4]; ATCC25922, 18 h, read-out: MIC (µg/mL) I): 8 µg/mL; MIC [5, 16]: 8 µg/mL"
"CCCCCCCCCC(=O)NC1CCNC1 (stereo not shown) [Hydrochloride salt of Compound 1a-2, N-(pyrrolidin-3-yl) decanoyl amide]",–,≤ 512 µg/mL,≥ 1020 µg/mL,≤ 512 µg/mL,≥ 1020 µg/mL,≤ 128 µg/mL,≥ 256 µg/mL,≤ 128 µg/mL,≥ 256 µg/mL,≤ 128 µg/mL,≥ 256 µg/mL,–
"CCCCCCCCCCCC(=O)NC1CCNCC1 [Hydrochloride salt of Compound 1b-1, N-(piperidin-4-yl) dodecanoyl amide]",–,≤ 32 µg/mL,≥ 128 µg/mL,≤ 32 µg/mL,≥ 128 µg/mL,≤ 4 µg/mL,≥ 16 µg/mL,≤ 8 µg/mL,≥ 16 µg/mL,≤ 4 µg/mL,≥ 16 µg/mL,"MIC [1, 8]: 64 µg/mL; MIC [2, 11]: 64 µg/mL; MIC ([3]; 18 h, read-out: MIC (µg/mL) I): 8 µg/mL; MIC [5, 16]: 8 µg/mL"
"CCCCCCCCCC(=O)NC1CCNCC1 [Hydrochloride salt of Compound 1b-2, N-(piperidin-4-yl) decanoyl amide]",–,≤ 512 µg/mL,≥ 1020 µg/mL,≤ 512 µg/mL,≥ 1020 µg/mL,≤ 128 µg/mL,≥ 256 µg/mL,≤ 128 µg/mL,≥ 256 µg/mL,≤ 128 µg/mL,≥ 256 µg/mL,–
